From the NIST ThermoML archive (doi:10.1016/j.jct.2018.12.031)
Numbers after ± are expanded uncertainties.

Tests used:
[1] = xn = mol fraction of the nth substance listed; settings: 100 kPa, Liquid; for speed of sound: Frequency=3 MHz, Linear variable-path acoustic interferometer; for mass density: Pycnometric method
[2] = 100 kPa, Liquid, Frequency=3 MHz, Linear variable-path acoustic interferometer

For `N#Cc1ccccc1` [benzonitrile] + C=C(C)C(=O)OCCCC, the speed of sound ([1]; 293.15 K, x1 = 1) was 1436.9 ± 1.7 m/s, the mass density ([1]; 293.15 K, x1 = 1) was 1003.99 ± 1 kg/m3 and the speed of sound ([1]; 298.15 K, x1 = 1) was 1418.2 ± 1.7 m/s. For the same molecule, the mass density ([1]; 298.15 K, x1 = 1) was 1000.32 ± 1 kg/m3, the speed of sound ([1]; 303.15 K, x1 = 1) was 1400.7 ± 1.7 m/s and the mass density ([1]; 303.15 K, x1 = 1) was 996.65 ± 1 kg/m3. For the same molecule, the speed of sound ([1]; 308.15 K, x1 = 1) was 1384 ± 1.7 m/s, the mass density ([1]; 308.15 K, x1 = 1) was 992.98 ± 1 kg/m3 and the speed of sound ([1]; 313.15 K, x1 = 1) was 1368.2 ± 1.7 m/s. It also gave a mass density ([1]; 313.15 K, x1 = 1) of 989.31 ± 1 kg/m3, a speed of sound ([1]; 318.15 K, x1 = 1) of 1352.9 ± 1.7 m/s and a mass density ([1]; 318.15 K, x1 = 1) of 985.64 ± 1 kg/m3.

Molecule `N#Cc1ccccc1` [benzonitrile] + C=C(C)C(=O)OCC has a speed of sound ([1]; 293.15 K, x1 = 1) of 1436.9 ± 1.7 m/s, a mass density ([1]; 293.15 K, x1 = 1) of 1003.99 ± 1 kg/m3 and a speed of sound ([1]; 298.15 K, x1 = 1) of 1418.2 ± 1.7 m/s. The mass density ([1]; 298.15 K, x1 = 1) was 1000.32 ± 1 kg/m3, the speed of sound ([1]; 303.15 K, x1 = 1) was 1400.7 ± 1.7 m/s and the mass density ([1]; 303.15 K, x1 = 1) was 996.65 ± 1 kg/m3. For the same molecule, the speed of sound ([1]; 308.15 K, x1 = 1) was 1384 ± 1.7 m/s, the mass density ([1]; 308.15 K, x1 = 1) was 992.98 ± 1 kg/m3 and the speed of sound ([1]; 313.15 K, x1 = 1) was 1368.2 ± 1.7 m/s. The mass density ([1]; 313.15 K, x1 = 1) was 989.31 ± 1 kg/m3, the speed of sound ([1]; 318.15 K, x1 = 1) was 1352.9 ± 1.7 m/s and the mass density ([1]; 318.15 K, x1 = 1) was 985.64 ± 1 kg/m3.

`C=C(C)C(=O)OC` [methyl methacrylate] + N#Cc1ccccc1 gave a speed of sound ([1]; 293.15 K, x2 = 0) of 1200.5 ± 1.6 m/s, a mass density ([1]; 293.15 K, x2 = 0) of 943.38 ± 1 kg/m3 and a speed of sound ([1]; 298.15 K, x2 = 0) of 1183.6 ± 1.6 m/s. It also gave a mass density ([1]; 298.15 K, x2 = 0) of 937.64 ± 1 kg/m3, a speed of sound ([1]; 303.15 K, x2 = 0) of 1168.5 ± 1.6 m/s and a mass density ([1]; 303.15 K, x2 = 0) of 931.9 ± 1 kg/m3. For the same molecule, the speed of sound ([1]; 308.15 K, x2 = 0) was 1152.6 ± 1.6 m/s, the mass density ([1]; 308.15 K, x2 = 0) was 926.16 ± 1 kg/m3 and the speed of sound ([1]; 313.15 K, x2 = 0) was 1135.4 ± 1.6 m/s. It also gave a mass density ([1]; 313.15 K, x2 = 0) of 920.42 ± 1 kg/m3, a speed of sound ([1]; 318.15 K, x2 = 0) of 1118.3 ± 1.6 m/s and a mass density ([1]; 318.15 K, x2 = 0) of 914.67 ± 1 kg/m3.

For `N#Cc1ccccc1` [benzonitrile], the speed of sound ([2]; 293.15 K) was 1436.9 ± 1.7 m/s, the speed of sound ([2]; 298.15 K) was 1418.2 ± 1.7 m/s and the speed of sound ([2]; 303.15 K) was 1400.7 ± 1.7 m/s. The speed of sound ([2]; 308.15 K) was 1384 ± 1.7 m/s, the speed of sound ([2]; 313.15 K) was 1368.2 ± 1.7 m/s and the speed of sound ([2]; 318.15 K) was 1352.9 ± 1.7 m/s.
